Values quoted from earlier work in patent publication US12502339B2, “Foam compositions” (The Procter & Gamble Company, priority 2021, dated 2025).

Details: in water

Structure (SMILES)	Water solubility at 20° C. (weight percent)
CC(C)C [Isobutane]	<0.01% weight percent
[N-]=[N+]=O [Nitrous oxide]	0.12 weight percent
CCCC [Butane]	<0.01% weight percent
[He] [Helium]	<0.01 weight percent
O=C=O [Carbon dioxide]	0.8% weight percent
COC [Dimethyl ether]	7% weight percent
